Laboratory results from patent US11001590B2, “Pyrazolopyrimidine derivatives” (BAYER ANIMAL HEALTH GMBH, priority 2016, dated 2021).
pEC50: −log10 of the molar value.

Tests used:
C. elegans Slo-1a = C. elegans Slo-1a (Caenorhabditis elegans, UniProt Q95V25); assay: In vitro assay 1: C. elegans Slo-1a, action at a recombinant C. elegans CHO cell line (membrane potential measurement)
[1] = tested on: Dirofilaria immitis third-stage larvae; assay: In vitro assay 4: Dirofilaria immitis (DIROIM L4), motility of larvae; conditions: 72 h
[2] = tested on: Dirofilaria immitis microfilariae; assay: In vitro assay 3: Dirofilaria immitis microfilariae (DIROIM L1), motility; conditions: 72 h, reduction of motility vs negative control, 72 h incubation
[3] = tested on: Nippostrongylus brasiliensis; assay: In vitro assay 2: Nippostrongylus brasiliensis (NIPOBR), acetylcholine esterase readout; conditions: adult worms, read-out: activity (reduction of AChE compared to negative control); for inhibition at 10 µg/mL: 10 μg/ml (10 ppm); for inhibition at 1 µg/mL: 1 μg/ml (1 ppm)
Description: In Vitro Assay 2: Nippostronqylus Brasiliensis (NIPOBR)
Adult Nippostrongylus brasiliensis were washed with saline buffer containing 100 U/ml penicillin, 0.1 mg/ml streptomycin and 2.5 μg/ml amphotericin B. Test compounds were dissolved in DMSO and worms were incubated in medium in a final concentration of 10 μg/ml (10 ppm) respectively 1 μg/ml (1 ppm). An aliquot of the medium was used to determine the acetylcholine esterase activity in comparison to a negative control. The principle of measuring acetylcholine esterase as readout for anthelmintic activity was described in Rapson et al (1986) and Rapson et al (1987).

[4] = log P by HPLC on reversed phase columns (Method L0; [a] acidic, [b] neutral range)
Description: Calibration was done with straight-chain alkan-2-ones (with 3 to 16 carbon atoms) with known log P values (measurement of log P values using retention times with linear interpolation between successive alkanones). Lambda-max-values were determined using UV-spectra from 200 nm to 400 nm and the peak values of the chromatographic signals.

[5] = tested on: Litomosoides sigmodontis third-stage larvae; assay: In vitro assay 7: Litomosoides sigmodontis L3 (LTMOSI), motility; conditions: 72 h, reduction of motility vs negative control, 72 h incubation
Description: In Vitro Assay 7: Litomosoides Siqmodontis L3 (LTMOSI)
10 Litomosoides sigmodontis third-stage larvae, which were freshly isolated from the pleural cavity of an infected rodent, were added to wells of a microtitre plate containing a nutrient medium and the test compound in DMSO. Compounds were tested in concentration-response assay in duplicate. Larvae exposed to DMSO and no test compounds were used as negative controls. Larvae were evaluated after 72 h of incubation with the compound. Efficacy was determined as the reduction of motility in comparison to the negative control. Based on the evaluation of a wide concentration range, concentration-response curves as well as ECso-values were calculated.

Sequence of C. elegans Slo-1a (Q95V25 whole entry): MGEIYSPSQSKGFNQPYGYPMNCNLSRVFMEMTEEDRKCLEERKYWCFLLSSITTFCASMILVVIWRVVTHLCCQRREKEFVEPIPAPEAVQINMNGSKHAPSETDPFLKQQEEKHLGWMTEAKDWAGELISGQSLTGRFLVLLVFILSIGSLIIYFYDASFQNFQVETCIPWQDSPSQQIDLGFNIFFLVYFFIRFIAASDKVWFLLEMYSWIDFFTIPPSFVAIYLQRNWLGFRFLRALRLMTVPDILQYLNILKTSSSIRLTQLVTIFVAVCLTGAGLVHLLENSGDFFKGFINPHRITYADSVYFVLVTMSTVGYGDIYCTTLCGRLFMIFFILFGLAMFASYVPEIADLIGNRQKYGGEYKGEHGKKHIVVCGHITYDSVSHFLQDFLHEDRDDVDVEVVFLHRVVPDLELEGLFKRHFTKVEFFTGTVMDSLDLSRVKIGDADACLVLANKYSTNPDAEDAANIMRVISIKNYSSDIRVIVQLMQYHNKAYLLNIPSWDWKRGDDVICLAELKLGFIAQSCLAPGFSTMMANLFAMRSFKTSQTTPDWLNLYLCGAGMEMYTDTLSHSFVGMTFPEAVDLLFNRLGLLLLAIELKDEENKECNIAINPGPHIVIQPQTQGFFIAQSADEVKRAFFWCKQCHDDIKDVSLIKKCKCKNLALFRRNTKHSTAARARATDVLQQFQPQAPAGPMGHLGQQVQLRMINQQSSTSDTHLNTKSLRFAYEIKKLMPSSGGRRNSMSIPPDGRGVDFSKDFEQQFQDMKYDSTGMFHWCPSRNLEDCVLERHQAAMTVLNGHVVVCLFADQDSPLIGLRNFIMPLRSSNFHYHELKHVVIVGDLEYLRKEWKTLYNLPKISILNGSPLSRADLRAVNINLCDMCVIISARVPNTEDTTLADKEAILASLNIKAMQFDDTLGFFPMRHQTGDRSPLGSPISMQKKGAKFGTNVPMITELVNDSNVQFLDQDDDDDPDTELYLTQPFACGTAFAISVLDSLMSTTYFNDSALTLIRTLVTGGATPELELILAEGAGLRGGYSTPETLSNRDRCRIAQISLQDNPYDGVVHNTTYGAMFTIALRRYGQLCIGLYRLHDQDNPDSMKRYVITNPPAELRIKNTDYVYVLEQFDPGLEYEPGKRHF

| SMILES | pEC50 (C. elegans Slo-1a) | EC50 [1] [µg/mL] | EC50 [2] [µg/mL] | inhibition at 10 µg/mL [3] [%] | chromatographic logP [4] | EC50 [5] [µg/mL] | inhibition at 1 µg/mL [3] [%] |
| --- | --- | --- | --- | --- | --- | --- | --- |
| Cc1nn2c(C3CC3)c(C(=O)N[C@H]3CCOc4ccccc43)cnc2c1-c1c(Cl)cccc1Cl [Example 467] | 9.40 | < 0.1 | < 0.1 | > 80 | 3.88 | < 0.1 | – |
| Cc1nn2c(C(C)C)c(C(=O)N[C@H]3CCOc4ccccc43)cnc2c1-c1cc(Cl)cc(Cl)c1 [Example 152] | 7.70 | < 1 | < 0.1 | > 80 | 5.84 | < 0.1 | > 80 |
| Cc1nn2c(C(C)C)c(C(=O)N[C@H]3CCOc4ccccc43)cnc2c1-c1c(Cl)ccc(F)c1F [Example 258] | 8.80 | < 0.1 | < 1 | > 80 | 4.46 | < 0.1 | > 80 |
| COc1cccc(-c2c(C)nn3c(C(C)C)c(C(=O)N[C@H]4CCOc5ccccc54)cnc23)c1F [Example 184] | 8.50 | < 0.1 | < 0.1 | > 80 | 2.84 | < 0.1 | – |
| Cc1nn2c(C3CC3)c(C(=O)N[C@H]3CCOc4ccccc43)cnc2c1-c1cc(Cl)cc(Cl)c1Cl [Example 538] | 9.50 | < 0.1 | < 0.1 | – | 4.8 | < 0.1 | > 80 |
| Cc1nn2c(C(C)C)c(C(=O)N[C@H]3CCOc4ccccc43)cnc2c1-c1ccc(F)c2c1OCO2 [Example 263] | 8.80 | < 0.1 | < 0.1 | > 80 | 4.13 | – | > 80 |
| Cc1nn2c(C(C)C)c(C(=O)N[C@H]3CCOc4ccccc43)cnc2c1-c1ccc(F)c(Cl)c1 [Example 186] | 7.80 | < 0.1 | < 0.1 | > 80 | 5.01 | < 0.1 | – |
| COc1ccc(-c2c(C)nn3c(C(C)C)c(C(=O)N[C@H]4CCOc5ccccc54)cnc23)cc1OC [Example 242] | 7.10 | – | < 10 | > 80 | 3.9 | – | – |
| CC(C)c1c(C(=O)N[C@H]2CCOc3ccccc32)cnc2c(-c3cc(Cl)cc(Cl)c3)c(S(C)(=O)=O)nn12 [Example 219] | 7.70 | – | < 1 | > 80 | 4.16 | – | – |
| COc1c(F)ccc(-c2c(C)nn3c(N4CCOCC4)c(C(=O)N[C@H]4CCOc5ccccc54)cnc23)c1F [Example 533] | 8.90 | < 0.1 | < 0.1 | – | 4.46 | < 0.1 | > 80 |
| Cc1nn2c(C(C)C)c(C(=O)N[C@H]3CCOc4ccccc43)cnc2c1-c1ccc(F)c(Cl)c1F [Example 213] | 8.80 | < 0.1 | < 0.1 | > 80 | 4.8 | < 0.1 | – |
| COc1cc(-c2c(C)nn3c(C(C)C)c(C(=O)N[C@H]4CCOc5ccccc54)cnc23)cc(F)c1F [Example 241] | 8.20 | < 0.1 | < 1 | > 80 | 4.6 | < 0.1 | > 80 |
| Cc1nn2c(C(C)C)c(C(=O)N[C@H]3CCc4ccccc43)cnc2c1-c1ncc(Cl)cc1Cl [Example 209] | 8.90 | < 0.1 | < 0.1 | > 80 | 4.51 | – | > 80 |
| Cc1nn2c(C(C)C)c(C(=O)N[C@H]3CCOc4ccccc43)cnc2c1-c1cnn(CC2CC2)c1 [Example 419] | 8.10 | – | < 10 | > 80 | 3.59 | – | – |
| Cc1nn2c(C(C)C)c(C(=O)N[C@H]3CCOc4ccccc43)cnc2c1-c1cccc(Cl)c1Cl [Example 170] | 8.70 | < 0.1 | < 0.1 | > 80 | 4.85 | < 0.1 | – |
| Cc1nn2c(C3CC3)c(C(=O)N[C@H]3CCOc4ccccc43)cnc2c1-c1ccc(F)cc1Cl [Example 475] | 8.70 | < 0.1 | < 0.1 | – | 3.79 | < 0.1 | > 80 |
| Cc1nn2c(C(C)C)c(C(=O)N[C@H]3CCOc4ccccc43)cnc2c1-c1c(F)cccc1Cl [Example 130] | 8.40 | < 0.1 | < 0.1 | > 80 | 4.44 | < 0.1 | – |
| CCn1cc(-c2c(C)nn3c(C(C)C)c(C(=O)N[C@H]4CCc5ccccc54)cnc23)cn1 [Example 374] | 7.30 | – | < 10 | > 80 | 3.44 | – | – |
| COCc1cccc(-c2c(C)nn3c(C4CC4)c(C(=O)N[C@H]4CCOc5ccccc54)cnc23)c1 [Example 451] | 8.10 | – | < 1 | > 80 | 3.43 | – | – |
| Cc1nn2c(C(C)C)c(C(=O)N[C@H]3CCc4ccccc43)cnc2c1-c1cnn(CC2CC2)c1 [Example 376] | 8.10 | – | < 10 | > 80 | 3.83 | – | – |
| Cc1nn2c(C3CC3)c(C(=O)N[C@H]3CCOc4ccccc43)cnc2c1-c1cnn(CC2CC2)c1 [Example 470] | 8.10 | – | < 10 | > 80 | 2.92 | – | – |
| Cc1nn2c(C(C)C)c(C(=O)N[C@H]3CCc4ccccc43)cnc2c1-c1ccc(F)c(C(F)(F)F)c1 [Example 294] | 7.30 | – | < 10 | > 80 | 5.36 | – | – |
| Cc1nn2c(C(C)C)c(C(=O)N[C@H]3CCc4ccccc43)cnc2c1-c1cnn(CC(F)F)c1 [Example 377] | 7.80 | – | < 10 | > 80 | 3.49 | – | – |
| Cc1nn2c(C(C)C)c(C(=O)N[C@H]3CCOc4ccccc43)cnc2c1-c1cccc(N2CC(F)C2)c1 [Example 459] | 8.00 | – | < 1 | > 80 | 4.36 | – | – |
| Cc1nn2c(C(C)C)c(C(=O)N[C@H]3CCOc4ccccc43)cnc2c1-c1cccc(N(C)C)c1 [Example 393] | 8.00 | – | < 0.1 | > 80 | 3.64 | – | – |
| Cc1nn2c(C(C)C)c(C(=O)N[C@H]3CCOc4ccccc43)cnc2c1-c1cccc2c1OC(F)(F)O2 [Example 257] | 8.20 | – | < 0.1 | > 80 | 4.87 | – | – |
| Cc1nn2c(C(C)C)c(C(=O)N[C@H]3CCCc4ccccc43)cnc2c1-c1cc(Cl)cc(Cl)c1F [Example 265] | 8.60 | – | < 1 | > 80 | 6.01 | – | – |
| Cc1nn2c(N3CCOCC3)c(C(=O)N[C@H]3CCOc4ccccc43)cnc2c1-c1cc(Cl)cc(Cl)c1 [Example 516] | 8.30 | < 0.1 | < 0.1 | > 80 | 3.99 | – | > 80 |
